What was measured:
[1] = tested on: MDA-MB-468 breast cancer cells; parameters: method as in Gilbert et al., 2020; conditions: MDA-MB-468, Breast (TN); MTT, 72 h; ref Gilbert et al., 2020; cited from earlier work
[2] = tested on: MDA-MB-231 breast cancer cells; parameters: method as in Gilbert et al., 2020; conditions: MDA-MB-231, Breast (TN); MTT, 72 h; ref Gilbert et al., 2020; cited from earlier work
[3] = tested on: BT474 breast cancer cells; parameters: method as in Gilbert et al., 2020; conditions: BT474, Breast (ER/PR/HER2); MTT, 72 h; ref Gilbert et al., 2020; cited from earlier work
[4] = tested on: A431 (vulva/skin, ER+) cells; parameters: method as in Gilbert et al., 2020; conditions: MTT, 72 h, ref Gilbert et al., 2020; cited from earlier work
[5] = tested on: MCF-7 breast cancer cells; parameters: method as in Gilbert et al., 2020; conditions: MCF-7, Breast (ER); MTT, 72 h; ref Gilbert et al., 2020; cited from earlier work
A2780 (ovary) cells = tested on: A2780 (ovary) cells; parameters: method as in Gilbert et al., 2020; conditions: MTT, 72 h, ref Gilbert et al., 2020; cited from earlier work
H460 (lung, ER+) cells = tested on: H460 (lung, ER+) cells; parameters: method as in Gilbert et al., 2020; conditions: MTT, 72 h, ref Gilbert et al., 2020; cited from earlier work
BE2-C (neuronal) cells = tested on: BE2-C (neuronal) cells; parameters: method as in Gilbert et al., 2020; conditions: Neuron, MTT, 72 h, ref Gilbert et al., 2020; cited from earlier work

Nc1ccccc1N1C(=O)c2cccc3cccc(c23)C1=O [Compound 2, 2-(2-aminophenyl)-1H-benzo[de]isoquinoline-1,3(2H)-dione]
GI50 [1]: 100 ± 20 nM | GI50 [2]: 35000 ± 3000 nM | GI50 [3]: 430 ± 70 nM | GI50 [4]: 250 ± 120 nM | GI50 [5]: 700 ± 120 nM | GI50 (A2780 (ovary) cells): 21000 ± 4000 nM | GI50 (H460 (lung, ER+) cells): 15000 ± 7500 nM | GI50 (BE2-C (neuronal) cells): > 50000 nM

O=c1c2cccc3cccc(c4n1Cc1ccccc1N=4)c32 [Compound 13, 7H,9H-benzo[4,5]isoquinolino[1,2-b]quinazolin-7-one]
melting point: 256 to 258 °C
